Data: ChEMBL document CHEMBL4017448, “Novel pyrazolo[1,5-a]pyridines as orally active EP1 receptor antagonists: Synthesis, structure-activity relationship studies, and biological evaluation” (Bioorg Med Chem, 2017)

How the values were obtained:
[1] = target: T1, Prostaglandin E2 receptor EP1 subtype (Rattus norvegicus, UniProt P70597); assay: Antagonist activity at rat EP1 receptor expressed in African green monkey COS1 cells assessed as decrease in prostaglandin E2-induced increase in intracellular calcium level incubated for 90 mins measured for 60 secs by Fluo 4-AM dye based fluorescence assay; type: functional, cell-based
T1 sequence (P70597 whole entry): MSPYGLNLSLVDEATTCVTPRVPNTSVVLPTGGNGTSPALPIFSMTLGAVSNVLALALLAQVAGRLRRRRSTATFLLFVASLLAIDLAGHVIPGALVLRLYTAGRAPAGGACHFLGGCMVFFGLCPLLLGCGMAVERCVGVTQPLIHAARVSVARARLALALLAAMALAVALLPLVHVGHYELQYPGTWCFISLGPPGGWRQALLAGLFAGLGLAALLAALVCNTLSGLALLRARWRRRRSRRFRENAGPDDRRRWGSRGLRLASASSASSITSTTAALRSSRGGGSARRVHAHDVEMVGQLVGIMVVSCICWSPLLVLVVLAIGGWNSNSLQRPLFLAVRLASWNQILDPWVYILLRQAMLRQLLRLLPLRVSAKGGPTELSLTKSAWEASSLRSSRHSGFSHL

[2] = AUC (0 to 8 hrs) in rat at 1 mg/kg, po; type: ADME, organism-based; parameters: time < 8 hr, dose 1 mg/kg, route oral; conditions: in vivo
[3] = Total clearance in rat at 1 mg/kg, iv; type: ADME, organism-based; conditions: in vivo
[4] = Volume of distribution in rat at 1 mg/kg, iv; type: ADME, organism-based; conditions: in vivo
[5] = Half life in rat at 1 mg/kg, iv; type: ADME, organism-based; conditions: in vivo
[6] = Half life in rat at 1 mg/kg, po; type: ADME, organism-based; conditions: in vivo
[7] = AUC (0 to infinity) in rat at 1 mg/kg, iv; type: ADME, organism-based; parameters: dose 1 mg/kg, time infinity, route intravenous; conditions: in vivo
[8] = AUC (0 to 8 hrs) in rat at 1 mg/kg, iv; type: ADME, organism-based; parameters: dose 1 mg/kg, time < 8 hr, route intravenous; conditions: in vivo
[9] = AUC (0 to infinity) in rat at 1 mg/kg, po; type: ADME, organism-based; parameters: dose 1 mg/kg, route oral, time infinity; conditions: in vivo
[10] = test system: Rattus norvegicus; assay: Reduction in 17-PTP induced bladder contraction in Wistar rat assessed as change in intravesical pressure administered intraduodenal pretreated for 5 followed by 17-PTP challenge at every 30 mins interval for 245 mins; type: functional
[11] = Oral bioavailability in rat at 1 mg/kg; type: ADME, organism-based; conditions: in vivo
[12] = test system: Rattus norvegicus; assay: Reduction in 17-PTP induced bladder contraction in Wistar rat assessed as change in intravesical pressure administered intravenously pretreated for 5 followed by 17-PTP challenge at every 30 mins interval for 245 mins; type: functional

Row | SMILES | IC50 [1] | also measured
1 | Cc1cc(C(=O)O)nn1Cc1cc(Cl)cc2cc(-c3ccc(Cl)cc3)nn12 | 290 nM | –
2 | Cc1cc(C(=O)O)nn1Cc1cc(Cl)cc2cc(-c3ccccc3Cl)nn12 | 220 nM | –
3 | COc1ccc2cc(-c3ccccc3)nn2c1Cn1nc(C(=O)O)cc1C | 1500 nM | –
4 | Cc1cc(C(=O)O)nn1Cc1cc(C(F)(F)F)cc2cc(-c3ccccc3)nn12 | 300 nM | –
5 | Cc1cc(C(=O)O)nn1Cc1cc(Cl)cc2cc(C3CCCC3)nn12 | 410 nM | –
6 | Cc1cc(C(=O)O)nn1Cc1cc(Cl)cc2cc(C3CC3)nn12 | 180 nM | –
7 | Cc1cc(C(=O)O)nn1Cc1cc(Cl)cc2cc(-c3ccccc3)oc12 | 22 nM | –
8 | Cc1cc(C(=O)O)nn1Cc1cc(Cl)cc2cc(-c3ccccc3)nn12 | 9.4 nM | AUC(0-t) at 8 h [2]: 4870 ng·h/mL; clearance [3]: 2.59 mL/min/kg; Vd [4]: 0.908 L/kg; half-life [5]: 4.99 h; half-life [6]: 4.28 h; AUC(0-inf) [7]: 7470 ng·h/mL; AUC(0-t) at 8 h [8]: 5010 ng·h/mL; AUC(0-inf) [9]: 6030 ng·h/mL; Activity [10]: Dose-dependent effect; bioavailability [11]: 81%; Activity [12]: Dose-dependent effect
9 | CCCCc1cc2cc(Cl)cc(Cn3nc(C(=O)O)cc3C)n2n1 | 1900 nM | –
10 | Cc1cc(C(=O)O)nn1Cc1cccc2cc(-c3ccccc3)nn12 | 120 nM | –
11 | Cc1cc(C(=O)O)nn1Cc1cc(Cl)cc2cc(-c3cccc(Cl)c3)nn12 | 150 nM | –
12 | COc1ccc(Cn2nc(C(=O)O)cc2C)n2nc(-c3ccccc3)cc12 | 1100 nM | –
13 | Cc1cc(C(=O)O)nn1Cc1cc(Cl)cc2cc(C3CCCCC3)nn12 | 71 nM | –
14 | Cc1cc(Cn2nc(C(=O)O)cc2C)n2nc(-c3ccccc3)cc2c1 | 450 nM | –
15 | CCCc1cc(C(=O)O)nn1Cc1cc(Cl)cc2cc(-c3ccccc3)nn12 | 97 nM | –
16 | CC(C)c1cc(C(=O)O)nn1Cc1cc(Cl)cc2cc(-c3ccccc3)nn12 | 1200 nM | –

Row | SMILES | IC50 [1] | also measured
17 | Cc1cc(C(=O)O)nn1Cc1cc(C#N)cc2cc(-c3ccccc3)nn12 | 1000 nM | –
18 | CC(=O)c1cc(Cn2nc(C(=O)O)cc2C)n2nc(-c3ccccc3)cc2c1 | 600 nM | –
19 | Cc1cc(C(=O)O)nn1Cc1cc(Cl)cc2cc(C(C)(C)C)nn12 | 2100 nM | –
20 | Cc1cc(C(=O)O)nn1Cc1ccc(Cl)c2cc(-c3ccccc3)nn12 | 2600 nM | –
21 | COc1ccc(-c2cc3cc(Cl)cc(Cn4nc(C(=O)O)cc4C)n3n2)cc1 | 410 nM | –
22 | COc1cccc(-c2cc3cc(Cl)cc(Cn4nc(C(=O)O)cc4C)n3n2)c1 | 110 nM | –
23 | O=C(O)c1ccn(Cc2cc(Cl)cc3cc(-c4ccccc4)nn23)n1 | 89 nM | –
24 | C=Cc1cc(Cn2nc(C(=O)O)cc2C)n2nc(-c3ccccc3)cc2c1 | 360 nM | –
25 | CC(C)Cc1cc(C(=O)O)nn1Cc1cc(Cl)cc2cc(-c3ccccc3)nn12 | 2000 nM | –
26 | CCc1cc(C(=O)O)nn1Cc1cc(Cl)cc2cc(-c3ccccc3)nn12 | 300 nM | –
27 | Cc1cc(C(=O)O)nn1Cc1cc(Cl)cc2cc(CC(C)C)nn12 | 1400 nM | –
28 | Cc1cc(C(=O)O)nn1Cc1c(Cl)ccc2cc(-c3ccccc3)nn12 | 540 nM | –
29 | CCCC/C=C/c1cc(Cn2nc(C(=O)O)cc2C)n2nc(-c3ccccc3)cc2c1 | 1500 nM | –
30 | COc1ccccc1-c1cc2cc(Cl)cc(Cn3nc(C(=O)O)cc3C)n2n1 | 840 nM | –
31 | O=C(O)c1ccn(Cc2cc(Cl)cc3cc(-c4ccccc4)nn23)c1 | 190 nM | –
32 | COc1cc(Cn2nc(C(=O)O)cc2C)n2nc(-c3ccccc3)cc2c1 | 9600 nM | –
